Measured values published in patent US7601735B2, “Antiviral compounds” (priority 2001, dated 2009).
Values joined by “and” are separate entries in the source; they are usually repeats but may differ in a detail not shown here. Equal values may be shown once. Read-outs that look alike come from different tables or passages of the source.

Columns and labels:
BVDV NADL [1] = experiment: Plaque reduction assay in MDBK cells; assay type: cell-based, bovine viral diarrhoea virus; settings: for inhibition of formation of BVDV plaques / IC50: MDBK cells; for inhibition of formation of BVDV plaques: FIG. 1; for concentrations at which only partial inhibition was shown: parallel plaque reduction experiments
Description: MDBK cells (NBL-1) (ATCC CCL22) derived from bovine kidney and cytopathic (cp) BVDV (strain NADL) (ATCC VR-534) were available from the American Type Culture Collection (ATCC).
(§1) MDBK cells were seeded into 6-well cell culture plates (Nunclon™, Nunc, Denmark) and allowed to grow to confluency. The cells are washed twice in warm phosphate buffered saline (PBS) and then infected with BVDV NADL (150 pfu/well) in 0.25 ml PBS containing 1% horse serum and 1 mM MgCl2. The cell culture plates were then incubated at 37° C. for one hour with 5% CO2 and the plates rocked every 15-20 minutes. The virus inoculum was then removed and replaced with 3.0 ml of 0.5% low-gelling temperature agarose overlay diluted in DMEM supplemented with 5% horse serum, 2 mM L-glutamine, 50 U/ml penicillin and 50 Lg/ml streptomycin and containing different concentrations of test compound or no compound. At least duplicate or triplicate wells were used for each concentration of test compound. The agarose was allowed to solidify at room temperature for 15 minutes and then incubated at 37° C. with 5% CO2. After 3 days incubation the cells were fixed by adding 1.5 ml of a […] solution over the agar overlay and leaving overnight. The agar was gently removed from the wells and the cells stained with 0.3% methylene blue in PBS for 10 minutes at room temperature. The excess stain was removed and the cells washed with PBS prior to drying of the plates and counting of the viral plaques microscopically. Dose response lines were plotted from the mean number of plaques present versus the log of the concentration of the compound. The 50% Inhibitory concentration (IC50) was computed after linear regression analysis.

MDBK cells [2] = experiment: Cytotoxicity in plaque reduction assay, microscopic examination of the cell monolayers; assay type: cell-based, bovine
Description: as §1
(§2) There was no sign of cytotoxicity at concentrations up to 1000 μM as judged by microscopic examination of the cell monolayers.

BVDV NADL [3] = experiment: XTT cytopathicity assay, infected cells; assay type: cell-based, bovine viral diarrhoea virus; settings: for protection of MDBK cells against virus-induced cell death (cytopathic effect of BVDV): FIG. 2
Description: The cells were washed twice in warm phosphate buffered saline (PBS) and then infected with BVDV NADL (100 pfu/well) in 100 μl of DMEM supplemented with 5% horse serum, 2 mM L-glutamine, 50 U/ml penicillin and 50 μg/ml streptomycin. Some wells were mock infected to act as controls. A further 100 μl of DMEM supplemented as above, but containing different concentrations of test compound or no compound was then added to each well. Triplicate wells were used for each compound concentration. In parallel, uninfected cells were treated with compound to assess cytotoxicity. The plates were then incubated at 37° C. with 5% CO2. […] The absorbance was then determined at 450 nm.

MDBK cells [4] = experiment: XTT cytopathicity assay, uninfected cells (cytotoxicity); assay type: cell-based, bovine; settings: for CC50: uninfected MDBK cells, 6 days
Description: (§3) MDBK cells were seeded into 96-well cell culture plates (Costar® 3596, Corning Incorp., USA) and allowed to grow to confluency. The cells were washed twice in warm phosphate buffered saline (PBS) and then infected with BVDV NADL (100 pfu/well) in 100 μl of DMEM supplemented with 5% horse serum, 2 mM L-glutamine, 50 U/ml penicillin and 50 μg/ml streptomycin. Some wells were mock infected to act as controls. A further 100 μl of DMEM supplemented as above, but containing different concentrations of test compound or no compound was then added to each well. Triplicate wells were used for each compound concentration. In parallel, uninfected cells were treated with compound to assess cytotoxicity. The plates were then incubated at 37° C. with 5% CO2. After 6 days 25 μl of a 1 mg/ml 2,3-bis[2-methoxy-4-nitro-5-sulphophenyl]-2H-tetrazolium-5-carboxanilide (XTT)/25 μM phenazine methosulphate (PMS) solution (XTT and PMS purchased from Sigma, Poole, Dorset, UK) was then added to each well and the plates incubated for 2 hours at 37° C. with 5% CO2. The absorbance was then determined at 450 nm. Data was plotted as O. D versus the log of the concentration of the compound and the 50% inhibitory concentration (IC50) computed.

BVDV = experiment: XTT cytopathicity assay, Bucast in combination with interferon alpha; assay type: cell-based, bovine viral diarrhoea virus
Description: as §3
The combination indexes (CI) were calculated using the formula of Suhnel (Antiviral Research, 13, 23-40). A CI value of less than 1 indicates a synergistic interaction and values of less than 0.8 are considered to indicate a statistically significant result.

[5] = Cytotoxicity in plaque reduction assay, microscopic examination of the cell monolayers; assay type: cell-based, bovine; settings: bovine
Description: as §1, §2

[6] = XTT cytopathicity assay, uninfected cells (cytotoxicity); assay type: cell-based, bovine; settings: bovine
Description: as §3

[7] = individual experiments, 150 pfu/well, 3 days, read-out: IC50
[8] = mean of experiments, read-out: Mean IC50 (μM) ± SD
[9] = MDBK cell monolayers, plaque reduction assay
[10] = individual experiments, MOI = 0.01, read-out: *IC50

| Compound | inhibition of formation of BVDV plaques (BVDV NADL [1]) | IC50 (BVDV NADL [1]; [7]) | IC50 (BVDV NADL [1]; [8]) [µM] | CC50 (MDBK cells [2]; [9]) [µM] | protection of MDBK cells against virus-induced cell death (cytopathic effect of BVDV) (BVDV NADL [3]) | IC50 (BVDV NADL [3]; MOI 0.0001, read-out: IC50) [µM] | IC50 (BVDV NADL [3]; MOI 0.001, read-out: IC50) [µM] | IC50 (BVDV NADL [3]; MOI 0.01, read-out: IC50) | IC50 (BVDV NADL [3]; MOI 0.1, read-out: IC50) | IC50 (BVDV NADL [3]; [10]) | cytotoxicity to uninfected treated cells (MDBK cells [4]; FIG. 2) | CC50 (MDBK cells [4]) [µM] | concentrations at which only partial inhibition was shown (BVDV NADL [1]) [µM] | also measured |
| --- | --- | --- | --- | --- | --- | --- | --- | --- | --- | --- | --- | --- | --- | --- |
| CCCC(=O)O[C@H]1CN2CC[C@H](O)[C@@H]2[C@@H](O)[C@@H]1O [Bucast, 60-butanoylcastanospermine] | inhibited the formation of BVDV plaques in a dose dependent manner | 10 µM (2×) and 20 µM and 25 µM | 16.2 | > 1000 | protected MDBK cells against virus-induced cell death | 5 | 40 | 60 µM and 30 µM | 200 µM and 170 µM | 60 µM (2×) and 30 µM and 70 µM and 40 µM | no cytotoxicity | > 300 |  | times more potent than castanospermine (BVDV NADL [1]; ratio of mean IC50): approximately 13 times; IC50 (BVDV NADL [3]; mean, MOI = 0.01, read-out: mean IC50): 36 µM and 52 µM; IC50 (BVDV; fixed interferon α 0 IRU/well): 52 ± 16.4 µM; IC50 (BVDV; fixed interferon α 0.125 IRU/well): 13 µM; IC50 (BVDV; fixed interferon α 0.25 IRU/well): 4 µM; IC50 (BVDV; fixed interferon α 0.5 IRU/well): 3 µM |
| OC1CN2CC[C@H](O)[C@@H]2C(O)[C@@H]1O (stereo partly drawn) [Castanospermine, [1S-(1α, 6β,7α,8β,8αβ)]-octahydro-1,6,7,8-indoli-zinetetrol] | inhibited the formation of BVDV plaques in a dose dependent manner | 190 µM and 280 µM |  |  | protected MDBK cells against virus-induced cell death |  |  |  |  | 500 µM |  |  |  | IC50 (BVDV NADL [1]; Bovine viral diarrhea virus isolates and strains, MDBK, in Bos taurus, 72 h, individual experiments, 150 pfu/well, 3 days, read-out: IC50): 180 µM; IC50 (BVDV NADL [1]; Bovine viral diarrhea virus isolates and strains, MDBK, in Bos taurus, mean of experiments, read-out: Mean IC50 (μM) ± SD): 217 µM; CC50 at 3 days [5]: > 1000 µM; IC50 (BVDV NADL [3]; Bovine viral diarrhea virus isolates and strains, in Bos taurus, individual experiments, MOI = 0.01, read-out: *IC50): 300 µM; IC50 (BVDV NADL [3]; Bovine viral diarrhea virus isolates and strains, in Bos taurus, read-out: mean IC50 (μM), mean, MOI = 0.01): 400 µM; CC50 at 6 days [6]: > 1000 µM; cytotoxicity to uninfected treated cells (MDBK cells [4]): no cytotoxicity |
| CCCCN1C[C@H](O)[C@@H](O)[C@H](O)[C@H]1CO [N-Butyl-DNJ, N-butyl-deoxynojirimycin] |  | > 300 µM and 250 µM |  | > 300 | neither N-butyl-DNJ or N-nonyl-DNJ demonstrated any protection | 55 | > 300 | > 300 µM | > 300 µM | > 1000 µM | no cytotoxicity | > 1000 | > 100 | fold less potent than Bucast (BVDV NADL [3]; very low MOI): 10 fold |
| CCCCCCCCCN1C[C@H](O)[C@@H](O)[C@H](O)[C@H]1CO [N-Nonyl-DNJ, N-nonyl-deoxynojirimycin] |  | 90 µM and 120 µM | 105 |  | neither N-butyl-DNJ or N-nonyl-DNJ demonstrated any protection |  |  |  |  | 60 µM and > 100 µM | clearly cytotoxic | 120 | > 300 | CC50 (μM) (MDBK cells [2]; [9]): Toxic @ 300; cytotoxicity to cells (MDBK cells [2]; at a concentration of 300 μM): clearly cytotoxic |
| Interferon α |  |  |  |  |  |  |  |  |  |  |  |  |  | IC50 (BVDV NADL [3]; interferon alone): 1.3 interferon resistance units (IRU) per well; IC50 Interferon α (IRU/well) (BVDV; fixed Bucast 0 μM): 1.3 IRU/well; IC50 Interferon α (IRU/well) (BVDV; fixed Bucast 5 μM): 0.22 IRU/well; IC50 Interferon α (IRU/well) (BVDV; fixed Bucast 10 μM): 0.12 IRU/well |
